Test results published in paper PMC4460186, “Fast and reliable production, purification and characterization of heat-stable, bifunctional enzyme chimeras” (AMB Express, 2015).

Key:
BC = system: T1, BC; experiment: 4-nitrophenol release, absorbance at […] nm; type: biochemical, uncultured archaeon; conditions: 10 mM NaPO4 pH 7.0, 80°C (standard assay); read-out: Substrate, 4-NP-β-D-GP / KM
T1 construct: gene bgl1; single-polypeptide fusion HIS-Bgl1-Cel5A-STREP, Ser-Ser linker, tags kept; from E. coli M15[pREP4]; with Endoglucanase

CB = system: T2, CB; experiment: 4-nitrophenol release, absorbance at […] nm; type: biochemical, uncultured archaeon; conditions: 10 mM NaPO4 pH 7.0, 80°C (standard assay); read-out: Substrate, 4-NP-β-D-GP / KM
T2 construct: gene bgl1; single-polypeptide fusion HIS-Cel5A-Bgl1-STREP, Ser-Ser linker, tags kept; from E. coli M15[pREP4]; truncated STREP-tagged Bgl1 degradation products remain in eluate; with Endoglucanase

## O=[N+]([O-])c1ccc(O[C@@H]2O[C@H](CO)[C@@H](O)[C@H](O)[C@H]2O)cc1 [4-NP-β-D-GP, 4-nitrophenyl-β-D-glucopyranoside]
BC
  Km: 530 µM
CB
  Km: 530 µM
